# Experimental data: ChEMBL document CHEMBL5360531, “Pyrazolone derivatives as potent and selective small-molecule SIRT5 inhibitors” (Eur J Med Chem, 2023)
# Target: T1, NAD-dependent protein deacylase sirtuin-5, mitochondrial (Homo sapiens, UniProt Q9NXA8)
# Assay: Inhibition of human SIRT5
# T1 sequence (Q9NXA8 whole entry): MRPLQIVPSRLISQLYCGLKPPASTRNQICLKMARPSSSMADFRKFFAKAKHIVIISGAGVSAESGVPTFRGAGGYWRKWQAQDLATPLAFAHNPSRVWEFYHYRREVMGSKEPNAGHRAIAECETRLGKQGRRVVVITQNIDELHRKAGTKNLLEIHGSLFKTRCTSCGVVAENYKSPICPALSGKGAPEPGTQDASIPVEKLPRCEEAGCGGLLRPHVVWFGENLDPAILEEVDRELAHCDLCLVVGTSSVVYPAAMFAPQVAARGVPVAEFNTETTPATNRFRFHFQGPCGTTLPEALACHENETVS
row,IC50 [µM],SMILES
1,2.2,N=C(N)NCCC[C@@H]1NC(=O)CCC(=O)NCCCC[C@@H](C(N)=O)NC(=O)[C@H](CCCCNC(=S)NCCC(=O)O)NC1=O

# Target: T1, NAD-dependent protein deacylase sirtuin-5, mitochondrial
# Assay: Inhibition of human SIRT5 by fluorescence based analysis
row,SMILES,IC50 [µM]
1,COC(=O)c1ccc(/C=C2/C(=O)N(c3nc(-c4cccc(OC)c4)cs3)N=C2C)cc1,15.8
2,CC1=NN(c2nc(-c3ccc(Br)cc3)cs2)C(=O)/C1=C/c1ccc(Cl)cc1,12.5
3,CC1=NN(c2nc(-c3ccccc3F)cs2)C(=O)/C1=C/c1ccc(C#N)cc1,13.8
4,COC(=O)c1ccc(/C=C2/C(=O)N(c3nc(-c4ccc(C#N)cc4)cs3)N=C2C)cc1,5.26
5,CC1=NN(c2nc(-c3ccc(F)cc3)cs2)C(=O)/C1=C/c1ccc(Cl)cc1,6.28
6,COC(=O)c1ccc(/C=C2/C(=O)N(c3nc(-c4cccc(F)c4)cs3)N=C2C)cc1,10.6
7,COc1ccc(-c2csc(N3N=C(C)/C(=C\c4ccc(Cl)cc4)C3=O)n2)cc1,22.6
8,COc1ccccc1-c1csc(N2N=C(C)/C(=C\c3ccc(C(=O)O)cc3)C2=O)n1,5.54
9,CC1=NN(c2nc(-c3cccc(C)c3)cs2)C(=O)/C1=C/c1ccc(C(=O)O)cc1,4.45
10,COC(=O)c1ccc(/C=C2/C(=O)N(c3nc(-c4cccc(C#N)c4)cs3)N=C2C)cc1,16.5
11,CC1=NN(c2nc(-c3ccc(Cl)cc3)cs2)C(=O)/C1=C/c1ccc(Cl)cc1,7.56
12,COC(=O)c1ccc(/C=C2/C(=O)N(c3nc(-c4ccccc4F)cs3)N=C2C)cc1,12.7
13,COC(=O)c1ccc(/C=C2/C(=O)N(c3nc(-c4ccccc4OC)cs3)N=C2C)cc1,20.6
14,COC(=O)c1ccc(/C=C2/C(=O)N(c3nc(-c4ccc(C)cc4)cs3)N=C2C)cc1,6.54
15,COC(=O)c1ccc(/C=C2/C(=O)N(c3nc(-c4ccc(O)cc4)cs3)N=C2C)cc1,12.8
16,COC(=O)c1ccc(/C=C2/C(=O)N(c3nc(-c4ccc(F)cc4)cs3)N=C2C)cc1,5.83
17,COc1ccc(-c2csc(N3N=C(C)/C(=C\c4ccc(C)cc4)C3=O)n2)cc1,36.8
18,COC(=O)c1ccc(/C=C2/C(=O)N(c3nc(-c4cccc(C)c4)cs3)N=C2C)cc1,20.5
19,COC(=O)c1ccc(/C=C2/C(=O)N(c3nc(-c4ccc(OC)cc4)cs3)N=C2C)cc1,10.2

# Results, then the compound that gave them:
row,IC50 [µM],SMILES
1,1.82,COc1ccc(-c2csc(N3N=C(C)/C(=C\c4ccc(C(=O)O)cc4)C3=O)n2)cc1
2,4.18,CC1=NN(c2nc(-c3ccccc3F)cs2)C(=O)/C1=C/c1ccc(C(=O)O)cc1
3,2.84,COC(=O)c1ccc(/C=C2/C(=O)N(c3nc(-c4ccc(C(F)(F)F)cc4)cs3)N=C2C)cc1
4,0.52,CC1=NN(c2nc(-c3ccc(C(F)(F)F)cc3)cs2)C(=O)/C1=C/c1ccc(C(=O)O)cc1
5,2.56,COC(=O)c1ccc(/C=C2/C(=O)N(c3nc(-c4ccc(Cl)cc4)cs3)N=C2C)cc1
6,4.16,CC1=NN(c2nc(-c3cccc(C#N)c3)cs2)C(=O)/C1=C/c1ccc(C(=O)O)cc1
7,0.85,CC1=NN(c2nc(-c3ccc(F)cc3)cs2)C(=O)/C1=C/c1ccc(C(=O)O)cc1
8,3.08,COc1cccc(-c2csc(N3N=C(C)/C(=C\c4ccc(C(=O)O)cc4)C3=O)n2)c1
9,1.28,CC1=NN(c2nc(-c3ccc(C)cc3)cs2)C(=O)/C1=C/c1ccc(C(=O)O)cc1
10,1.92,CC1=NN(c2nc(-c3ccc(O)cc3)cs2)C(=O)/C1=C/c1ccc(C(=O)O)cc1
11,1.86,CC1=NN(c2nc(-c3cccc(F)c3)cs2)C(=O)/C1=C/c1ccc(C(=O)O)cc1
12,1.05,CC1=NN(c2nc(-c3ccc(C#N)cc3)cs2)C(=O)/C1=C/c1ccc(C(=O)O)cc1
13,4.36,COC(=O)c1ccc(/C=C2/C(=O)N(c3nc(-c4ccc(Br)cc4)cs3)N=C2C)cc1
14,2.28,COC(=O)c1ccc(/C=C2/C(=O)N(c3nc(-c4cccc(C(F)(F)F)c4)cs3)N=C2C)cc1
15,1.72,CC1=NN(c2nc(-c3ccc(Br)cc3)cs2)C(=O)/C1=C/c1ccc(C(=O)O)cc1
